“Also recorded” adds a separate entry of the source.
Tested on: ethanol/HCl mixture-induced gastric lesions
Assay: ethanol/HCl mixture-induced gastric lesion test in rats
Format: in vivo, Male Sprague Dawley rats
Details: for inhibition of the formation of gastric lesions (gastric lesion score) relative to vehicle alone: 200 μmol/kg by oral gavage 30 min before 60% ethanol in 150 mM HCl intragastrically, lesions scored 60 min later, vehicle 0.5% Methocel, FIG. 1
Description: The ethanol/HCl mixture-induced gastric lesion test in rats described by Takeuchi et al, J. Pharmacol. Exp. Ther., 286: 115-121 (1998), was used to evaluate gastric lesion activity. Male Sprague Dawley rats (Charles River Laboratories, Wilmington, Ma.) weighing 230-250 g were used for the experiments. The rats were housed with laboratory chow and water ad libitum prior to the study. The rats were fasted for 24 hours with free access to water and then dosed by oral gavage with vehicle or with the test compounds given at a volume of 0.5 ml/100 g body weight. Thirty minutes after oral dosing all the rats received 1 ml of a solution of 60% ethanol in 150 mM HCl intragastrically. Food was withheld after dosing. Sixty minutes after ethanol/HCl, rats were euthanized by pre-charged CO2. The stomachs were dissected along the greater curvature, washed with a directed stream of 0.9% saline and pinned open on a sylgard based petri dish for examination of the hemorrhagic lesions. Gastric lesion score was expressed in mm and calculated by summing the length of each lesion as described by Al-Ghamdi et al, J. Int. Med. Res., 19:2242 (1991). Results are expressed as the mean ± standard error of the mean. Statistical analysis were conducted using ANOVA test followed by a Student-Newman-Keuls post-hoc test using the Abacus Concepts, Super Anova computer program (Abacus Concepts, Inc., Berkeley, Calif.).

Row | Structure (SMILES) | inhibition of the formation of gastric lesions (gastric lesion score) relative to vehicle alone | inhibition of the formation of gastric lesions (gastric lesion score) relative to lanzoprazole (200 μmol/kg by oral gavage 30 min before ethanol/HCl, p<0.05, FIG. 1)
1 | Cc1c(OCC(F)(F)F)ccnc1C[S+]([O-])c1nc2ccccc2[nH]1 (stereo not drawn) [Lanzoprazole, 2-(((3-methyl-4-(2,2,2-trifluoro-ethoxy)-2-pyridinyl)methyl)sulfinyl)-1H-benzimidazole, reference compound] | did not significantly inhibit the formation of gastric lesions; also recorded: failed to significantly inhibit the formation of gastric lesions | –
2 | Cc1c(CC(F)(F)F)ccnc1C[S+]([O-])c1nc2ccccc2n1COC(=O)CCC(=O)N(Cc1ccccc1)CC(C)(C)SN=O (stereo not drawn) [Example 2, {2-({[3-Methyl-4-(2,2,2-trifluoroethyl)-2-pyridyl]methyl}sulfinyl)benzimidazolyl]-methyl-3-{N-[2-methyl-2-(nitrosothio)-propyl]-N-benzylcarbamoyl}propanoate] | significantly inhibited the formation of gastric lesions | inhibited the formation of gastric lesions

— US7332505B2, “Nitrosated and nitrosylated proton pump inhibitors, compositions and methods of use” (Nitromed, Inc., priority 1999, dated 2008)
